These results are taken from ChEMBL document CHEMBL4177612, “Discovery of tranylcypromine analogs with an acylhydrazone substituent as LSD1 inactivators: Design, synthesis and their biological evaluation” (Bioorg Med Chem Lett, 2017).

What all share (format): functional, cell-based
Assay [1] relates to MGC-803. As to the kind of experiment: Antiinvasive activity against human MGC803 cells at 0.25 to 1 uM after 24 hrs by DAPI staining based matrigel coated transwell assay.
Assay [2] deals with MGC-803. The assay is described as follows: Effect on LSD1 level in human MGC803 cells at 1 to 4 uM after 4 days by immunofluorescence analysis.
Assay [3] has as its system MGC-803. The assay is described as follows: Anti-migratory activity against human MGC803 cells after 24 hrs by DAPI staining based transwell assay.

Calls of active or inactive are those of the source. The rule behind the calls is not given here.

With `CCN(CC)c1ccc(/C=N/NC(=O)CN[C@@H]2C[C@H]2c2ccc(F)c(F)c2)c(O)c1`, the outcome in the assay on MGC-803 [1] was Active. In addition, the outcome in the assay on MGC-803 [2] was inactive. Moreover, the Activity entry with MGC-803 [3] is “Dose-dependent effect”.
